Legend:
[1] = molecular target: T1, peripheral-type benzodiazepine receptor (PBR) (Homo sapiens, UniProt P30536); test: Radioligand binding assay, inhibition of [^3H]PK 11195 binding to HL-60 homogenates; conditions: HL-60 homogenates, 2 nM [^3H]PK 11195; mean±SEM; read-out: Inhibition of [^3H]PK 11195 binding to the PBR, Ki value
T1 construct: Cell homogenates (50 μg protein) were incubated with 0.5-50 nM [^3H]; PK 11195; endogenous in cells; host or cells: HL-60 cell homogenate
Description: HL-60 cells were harvested by centrifugation at 600 g for 5 min and washing in phosphate-buffered saline. The resulting cell pellet was homogenised in 50 mM Tris/HCl buffer, pH 7.4 (2 ml), using an Ultraturrax homogeniser (10 sec) and then passed 5 times through a 21 gauge needle. Cell homogenates (50 μg protein) were incubated with 0.5-50 nM [^3H] PK 11195 in 50 mM Tris/HCl buffer, pH 7.4 (incubation buffer), in a total volume of 0.5 ml on ice. Total and non-specific/non-saturable binding in each case was determined in the absence and presence of 10 μM unlabelled PK 11195 respectively. All samples were incubated in triplicate for 60 min. The incubation mixtures were then filtered and counted as previously described (O'Beirne, et al., 1988). When testing the potency of a compound to inhibit [^3H] PK 11195 binding, samples were incubated with 2 nM [3H] PK 11195 and various concentrations (0.1 nM to 1 μM) of compound and subsequently treated exactly as above. The resulting Ki values were then generated by the use of the computer programs EBDA and LIGAND.
The amount of radioactivity bound in the presence of the displacer was expressed as a percentage of control bonding and the values represent the mean±SEM of triplicate determinations from one representative experiment performed at least twice. The Ki values were obtained as described in Methods section.

[2] = system: CEM (T lymphoblastoid) cells; test: Apoptosis in CEM cells (neo and Bcl-2 overexpressing); type: cell-based, human
[3] = system: Cytochrome C; test: Cytochrome C Western blot, CML cell cytosol; type: cell-based, human; conditions: K562, KYO.1, Lama 84; 16 hour treatment
Description: Cells (15×10^6) were harvested by centrifugation at 1800 g for 10 min at 4° C. After being washed once with ice-cold phosphate-buffered saline, the cell pellet was suspended in 100 μl of ice-cold buffer A (20 mM Hepes, pH 7.5, 10 mM KCl, 1.5 mM MgCl2, 1 mM sodium EDTA, 1 mM sodium EGTA, 1 mM dithiotreitol and 0.1 mM phenylmethylsulfonyl fluoride) supplemented with protease inhibitors (5 μg/ml pepstatin A, 10 μg/ml leupeptin and 2 μg/ml of aprotinin). The cells were left to sit on ice for 15 min and then centrifuged at 20,000 g for 20 min. The resulting supernatant was stored at −70° C. until measurement of cytochrome C. Protein determination was measured by using the Bradford assay. Equal amounts of protein were resolved by SDS-polyacrylamide gel electrophoresis in 15% gels and transferred onto nitro-cellulose. Membranes were blocked with phosphate-buffered saline/5% (w/v) dry milk and probed with anti-cytochrome C antibody. Blots were washed, incubated with goat anti-mouse IgG peroxidase conjugate and developed by ECL according to the manufacturer's recommendations.

[4] = system: JNK1 and JNK2; type: cell-based, human; conditions: K562 cells
[5] = system: tyrosine phosphorylated proteins; test: Protein tyrosine phosphorylation Western blot, Jurkat cells; type: cell-based, human
Description: Jurkat and CML cells (5×10^6) were harvested by centrifuigation at 1800 g for 10 min at 4° C. After being washed once with ice-cold phosphate-buffered saline, the cell pellet was suspended in 100 μl of ice-cold lysis buffer (50 mM Tris-HCl, pH 8.0, 150 mM NaCl, 0.1%.SDS, 1% Triton X-100, 1 mM sodium 1 mM phenylmethylsulfonyl, 10 ng/ml leupeptin and 10 ng/ml of aprotinin). The cells were left to sit on ice for 10 min and then centrifuged at 20,000 g for 20 min. The resulting supernatant was stored at −70° C. until measurement of tyrosine phosphorylation. Protein determination was measured by using the Bradford assay. Equal amounts of protein were resolved by SDS-polyacrylamide gel electrophoresis in 15% gels and transferred onto polyvinylidene difluoride (PVDF) membranes. Membranes were blocked with Tris-buffered saline with Tween 20 (10 mM Tris-HCl, pH 8.0, 150 mM NaCl, 0.05% Tween 20) containing 1% w/v BSA and probed with anti-phosphotyrosine antibody. Blots were washed, incubated with goat anti-mouse IgG peroxidase conjugate and developed by ECL according to the manufacturer's recommendations.

[6] = system: Jurkat cells; type: cell-based, human; conditions: 0.5 μM 1 hour, then etoposide 2.5 μM 1 hour
Description: This assay was set up as described by Kohn et al., 1976 with the following modifications.
Cells were seeded at 0.4×10^6 cells/ml and were in the logarithmic phase of growth. […] Cells harvested for the experiments were at a density of 2×10^6 cells/ml.
Cells (1×10^6) were labelled with [^3H] thymidine (sp. act. 2 Ci/mmol) (0.2 μCi/ml) and 1 μM unlabelled thymidine, and incubated for 20 hr. Cells were harvested by centrifugation at 500×g for 5 mins following by two washes in PBS and the pellet was resuspended in 3 ml of PBS. Cells were aliquoted into 1 ml amounts in a 24 well plate and allowed to recover for 1 hr at 37° C. before treating with indicated compounds. Following treatment, cells were washed once in PBS and resuspended in 250 μl of PBS. An aliquot of cells (200 μl) was loaded directly onto a 25 mm diameter glass fiber filter, pore size of 0.2 μM. The cells were lysed on the filter by the addition of 5 ml lysis buffer (2% (w/v) SDS, 10 mM disodium EDTA (pH 10) supplemented with 0.5 mg/ml proteinase K. The lysis buffer was allowed to flow slowly through the filter without suction. Filters were washed using 3 ml wash solution (0.02M Na3EDTA pH 10) allowing it to flow without suction. Filters were eluted in the dark with an alkaline solution (0.04M EDTA plus tetrapropylammonium hydroxide (10% in H2O ) added in the amount required to give pH 12.1). The elution apparatus consisted of a filter funnel with output tubing passing through a peristaltic pump to a collector. Elution took place overnight at a flow rate of 0.05 ml/min. Following elution, filters were treated with 0.4 ml HCl (1N) for 1 hr at 70° C. followed by 2.5 ml NaOH (0.4N) for 30 min at room temp. Scintillation fluid (10 ml) was added and radioactivity remaining on the filters was determined by scintillation counting.

[7] = system: HL-60 cells; test: Agarose gel electrophoresis of DNA ladders, HL-60 cells; type: cell-based, human; conditions: 24 hours
[8] = system: HL-60 cells; test: Apoptosis in HL-60 cells, cytospin and Rapi-Diff staining
[9] = HL-60 cells and the 3 CML cell lines

T1 sequence (P30536 whole entry): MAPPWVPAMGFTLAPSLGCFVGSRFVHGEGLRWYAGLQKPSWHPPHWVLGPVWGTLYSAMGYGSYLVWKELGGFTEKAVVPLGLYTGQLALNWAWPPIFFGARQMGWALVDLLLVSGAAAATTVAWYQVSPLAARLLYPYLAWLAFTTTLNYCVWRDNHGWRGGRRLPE

`CN(C)C(=O)OC1=C(c2cccc3ccccc23)Oc2ccccc2-n2cccc21` [PBOX-6, 7-((Dimethylcarbamoyl)oxy)-6-(1-naphthyl)pyrrolo[2,1-d][1,5]benzoxazepine] was tested, and the Ki [1] was 6.7 ± 1.7 nM, the “induction of apoptosis in CEM cells overexpressing Bcl-2” value ([2]; Bcl-2 overexpressing) was “dose-dependent induction of apoptosis” and the “induction of apoptosis in normal CEM cells” value ([2]; normal (neo) CEM) was “dose-dependent induction of apoptosis”. For the same compound, the “cytochrome C levels in the cytosol” value [3] was “unchanged”, the “time at which JNK activation first becomes visible” value [4] was 15 min and the “time of peak JNK activation” value [4] was 30 to 45 min. The protein tyrosine phosphorylation [5] was “time and dose-dependent decrease in protein tyrosine phosphorylation”, the “effect of pretreatment on etoposide induced DNA strand breaks” value [6] was “did not prevent the induction of DNA strand breaks by etoposide” and the “DNA fragmentation (ladder pattern)” value [7] was “resulted in DNA fragmentation”. For the same compound, the “apoptosis below a final concentration of 5 μM” value ([8]; HL-60 cells) was “negligible”, the “time at which morphological signs of apoptosis became apparent” value ([8]; HL-60 cells) was 6 hours and the “concentration at which apoptosis was first observed” value [8, 9] was 5 µM. The “time after which apoptosis was first observed” value [8, 9] was 4 h, the degree of necrosis ([8]; HL-60 cells, 10 μM, 16 hours) was “negligible” and the cytotoxicity at 10 µM ([8]; Homo sapiens, HL-60, 16 h, read-out: % Apoptosis) was 38.6 ± 4.6%.
